According to article doi:10.1101/2025.04.25.650653, “Hierarchical small molecule inhibition of MYST acetyltransferases” (bioRxiv, 2025):
Values joined by “and” are separate entries in the source; they are usually repeats but may differ in a detail not shown here. Equal entries are not always repeated.

Tested on: histone modifications in MCF-7 cells
Assay: Histone modification analysis by bottom-up LC-MS/MS;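 on Ratio, H2AV 1 19 K11ac*: inhibitor concentrations in µM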;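 on Ratio, H2AX 4 11 K5acK9ac: inhibitor concentrations in µM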;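 on Ratio, H2AX 4 11 K9ac: inhibitor concentrations in µM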;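 on Ratio, H2AZ 1 19 K15ac: inhibitor concentrations in µM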;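 on Ratio, H2AZ 1 19 K4ac: inhibitor concentrations in µM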;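 on Ratio, H2AZ 1 19 K4acK11ac: inhibitor concentrations in µM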
Type: cell-based
Excerpt: In this approach. […] Histones are then extracted from cell pellets and chemically derivatized with propionic anhydride, digested with trypsin, subjected to a second round of propionylation, and analyzed by LC-MS/MS. Measuring the relative intensity of modified versus unmodified forms of individual histone peptides enables simultaneous monitoring of multiple potential biomarkers of MYST inhibition. To minimize false positives, we focused on abundant and reproducible modifications (average stoichiometry of greater than 1% across triplicate samples, standard deviation less than or equal to the average measurement). To account for potential histone modification crosstalk, changes in both acetylated and methylated peptides were evaluated. 38 modified peptides passed this reproducible detection threshold including several established KAT biomarkers[41] including H3K9Ac (KAT2A/B), H3K18Ac (KAT3A/B), H3K14Ac (KAT7), H3K23Ac (KAT6A/B), H4K16Ac (KAT8), and H2A.ZK4/K7Ac (KAT5; Fig. 4B).
Histone modification analysis
MCF-7 cells were cultured at 37 °C under 5% CO2 in EMEM (Quality Biological, 112-016-101) with 0.01 mg/mL human recombinant insulin (Sigma Aldrich, 91077C), 2 mM L-glutamine (Quality Biological, 118- […]
human recombinant insulin.
1119, WM-3835). Following 24 h inhibitor treatment, cells were washed with ice-cold 1× PBS and scraped in 150 µL of Nuclear Isolation Buffer (NIB) containing 0.1% NP-40 for histone extraction using a modified protocol from the Garcia laboratory. 9 Briefly, cell suspensions were incubated on ice for 5 minutes, and […]
nuclei were pelleted by centrifugation (600 rcf, 4°C, 5 min). Pelleted nuclei were washed twice with 150 μL of detergent-free NIB buffer, followed by centrifugation (600 rcf, 4°C, 5 min) to remove all detergent.
Nuclei were then resuspended in 400 μL of 0.4 N H₂SO₄ and rotated at 4°C overnight for acid extraction of histones. The following day, samples were centrifuged (11,000 rcf, 4°C, 10 min) and the histone-containing supernatant was transferred to a fresh tube. Trichloroacetic acid (100% TCA) was added to achieve a final concentration of 20% (v/v), tubes were inverted once to mix, and histone precipitation was performed on ice for at least 3 hours or overnight at 4°C. Precipitated histones were collected by centrifugation (11,000 rcf, 4°C, 10 min) and the supernatant carefully removed, leaving a visible film of histones on the tube wall or bottom. Histone pellets were subjected to sequential washes with 1 mL of ice-cold acidified acetone (0.1% 12 N HCl) followed by 1 mL of 100% ice-cold acetone, with centrifugation (11,000 rcf, 4°C, 5 min) after each wash. Samples were air-dried at room temperature, resuspended in 40 µL of ddH₂O, and protein […]
analysis, 1-2 µg of purified histones were loaded per lane and processed according to the general immunoblotting protocol described in General Materials and Methods.
Analysis of histone modifications by LC-MS/MS
Preparation of histone samples for LC-MS/MS was performed analogously to the procedure for immunoblotting above, with the following modifications. MCF7 cells (4.2 × 106) were seeded in 15 cm dishes and treated with PF-9363 or vehicle. Experiments were performed in triplicate. Following treatment and PBS washing, cells were scraped and collected in 15 mL falcon tubes, pelleted (500 rcf, 4°C, 5 min), resuspended in 1 mL cold PBS, transferred to microcentrifuge tubes, and pelleted again before flash-freezing in liquid nitrogen for storage at -80°C. For extraction, cell pellets (~100 μL) were resuspended in NIB buffer at a 1:10 ratio, and cells were lysed with NIB buffer containing 0.2% NP-40 for 8 minutes on ice. Nuclei were pelleted at 1,000 rcf for 8 minutes and washed three times with 500 μL detergent-free NIB buffer. Histones were extracted using 800 μL of 0.2 M H₂SO₄, and after centrifugation (3,400 rcf, 4°C, 10

[1] = KAT marker KAT5, PF-9363 0.1, Replicates 1-3
[2] = KAT marker KAT5, PF-9363 1, Replicates 1-3
[3] = KAT marker KAT5, PF-9363 10, Replicates 1-3
[4] = KAT marker KAT5, PF-9363 30, Replicates 1-3
[5] = KAT marker KAT5, PF-9363 (0.1 mM)
[6] = KAT marker KAT5, PF-9363 (30 mM)
[7] = KAT marker KAT5, average ratio 0.1 v 30

Compound: COc1cccc(OC)c1S(=O)(=O)Nc1noc2cc(Cn3cccn3)cc(OC)c12 [PF-9363]
- Ratio, H2AV_1_19 K11ac* [1]: 0.007595 and 0.00642 and 0.01986
- Ratio, H2AX_4_11 K5acK9ac [1]: 0.05241 and 0.03954 and 0.03977
- Ratio, H2AX_4_11 K9ac [1]: 0.01011 and 0.01143 and 0.00727
- Ratio, H2AZ_1_19 K4ac [1]: 0.0934 and 0.07612 and 0.06178
- Ratio, H2AZ_1_19 K4acK11ac [1]: 0.01166 and 0.008639 and 0.01028
- Ratio, H2AZ_1_19 K15ac [1]: 0.004599 and 0.02439 and 0.01482
- Ratio, H2AV_1_19 K11ac* [2]: 0.004474 and 0.01793 and 0.01146
- Ratio, H2AX_4_11 K5acK9ac [2]: 0.01434 and 0.002712 and 0.0302
- Ratio, H2AX_4_11 K9ac [2]: 0.009767 and 0.01635 and 0.01121
- Ratio, H2AZ_1_19 K4ac [2]: 0.09212 and 0.06375 and 0.07053
- Ratio, H2AZ_1_19 K4acK11ac [2]: 0.007173 and 0.01149 and 0.00767
- Ratio, H2AZ_1_19 K15ac [2]: 0.003136 and 0.01439 and 0.00489
- Ratio, H2AV_1_19 K11ac* [3]: 0.01122 and 0 and 0.008954
- Ratio, H2AX_4_11 K5acK9ac [3]: 0.00945 and 0.08577 and 0.02854
- Ratio, H2AX_4_11 K9ac [3]: 0.01063 and 0.01009 and 0.01309
- Ratio, H2AZ_1_19 K4ac [3]: 0.08614 and 0 and 0.04884
- Ratio, H2AZ_1_19 K4acK11ac [3]: 0.008371 and 0 and 0.01009
- Ratio, H2AZ_1_19 K15ac [3]: 0.007824 and 0 and 0.01105
- Ratio, H2AV_1_19 K11ac* [4]: 0.005769 and 0.002136 and 0.002357
- Ratio, H2AX_4_11 K5acK9ac [4]: 0.04001 and 0.01893 and 0.03445
- Ratio, H2AX_4_11 K9ac [4]: 0.01286 and 0.00924 and 0.00685
- Ratio, H2AZ_1_19 K4ac [4]: 0 and 0.02795 and 0.04699
- Ratio, H2AZ_1_19 K4acK11ac [4]: 0 (2×) and 0.004492
- Ratio, H2AZ_1_19 K15ac [4]: 0 and 0.01504 and 0.003466
- Average ratio, H2AV_1_19 K11ac* [5]: 0.0113
- Average ratio, H2AX_4_11 K5acK9ac [5]: 0.0439
- Average ratio, H2AX_4_11 K9ac [5]: 0.0096
- Average ratio, H2AZ_1_19 K4ac [5]: 0.0771
- Average ratio, H2AZ_1_19 K4acK11ac [5]: 0.0102
- Average ratio, H2AZ_1_19 K15ac [5]: 0.0146
- Average ratio, H2AV_1_19 K11ac* [6]: 0.0034
- Average ratio, H2AX_4_11 K5acK9ac [6]: 0.0311
- Average ratio, H2AX_4_11 K9ac [6]: 0.0097
- Average ratio, H2AZ_1_19 K4ac [6]: 0.0250
- Average ratio, H2AZ_1_19 K4acK11ac [6]: 0.0015
- Average ratio, H2AZ_1_19 K15ac [6]: 0.0062
- Fold-change 0.1 v 30, H2AV_1_19 K11ac* [7]: 3.30
- Fold-change 0.1 v 30, H2AX_4_11 K5acK9ac [7]: 1.41
- Fold-change 0.1 v 30, H2AX_4_11 K9ac [7]: 1.00
- Fold-change 0.1 v 30, H2AZ_1_19 K4ac [7]: 3.09
- Fold-change 0.1 v 30, H2AZ_1_19 K4acK11ac [7]: 6.81
- Fold-change 0.1 v 30, H2AZ_1_19 K15ac [7]: 2.37
- Fold-change 0.1 v 30, H3_18_26 unmod (KQLATKAAR(H3_18_26), PF-9363 0.1 v 30): 0.96
- Average ratio, H3_18_26 unmod (KQLATKAAR(H3_18_26), PF-9363 (0.1 mM)): 0.9434
- Average ratio, H3_18_26 unmod (KQLATKAAR(H3_18_26), PF-9363 (30 mM)): 0.9781
- Ratio, H3_73_83 K79me1 (PF-9363 0.1, Replicates 1-3): 0.07799 and 0.09275 and 0.09546
- Ratio, H3_73_83 K79me2 (PF-9363 0.1, Replicates 1-3): 0.05292 and 0.1051 and 0.06234
- Ratio, H3_73_83 unmod (PF-9363 0.1, Replicates 1-3): 0.8672 and 0.8006 and 0.8413
- Ratio, H4_4_17 K12acK16ac (PF-9363 0.1, Replicates 1-3): 0.009379 and 0.008608 and 0.009722
- Ratio, H4_4_17 unmod (PF-9363 0.1, Replicates 1-3): 0.6357 and 0.6297 and 0.6309
- Ratio, H4_20_23 K20me1 (PF-9363 0.1, Replicates 1-3): 0.02877 and 0.03606 and 0.02758
- Ratio, H4_20_23 unmod (PF-9363 0.1, Replicates 1-3): 0.03039 and 0.02967 and 0.02773
- Fold-change 0.1 v 30, H2A1_12_17 unmod (AKAKTR) (PF-9363 0.1 v 30, peptide H2A1_12_17 unmod, MCF-7): 0.98
- Fold-change 0.1 v 30, H2A3_12_17 K15me1 (AKAKSR) (PF-9363 0.1 v 30, peptide H2A3_12_17 K15me1, MCF-7): 0.96
- Ratio, H2A1_1_11 K5ac (PF-9363 1, Replicates 1-3): 0.9077 and 0.9494 and 0.9116
- Ratio, H2A1_4_11 K5ac (PF-9363 1, Replicates 1-3): 0.06275 and 0.03204 and 0.05607
- Ratio, H2A1_4_11 K9ac (PF-9363 1, Replicates 1-3): 0.0308 and 0.06179 and 0.03113
